Assay results from ChEMBL document CHEMBL1201862, “PubChem BioAssay data set” (2004).
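1) Cells in 96-well plates. 2) Compound, 48 h, 5 concentrations. 3) Linear interpolation between surrounding doses. 4) Unreached endpoint = highest concentration. GI50 is the concentration that inhibits growth by half.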 Activity calls are given as the source filed them. No stated cut-off is given here; in the data, active = GI50 up to about 1.1 µM and inactive = higher.

Tests used:
Experiment in all cases: growth of human tumour cells (NCI), 48 h
KM-20L2 = test system: KM-20L2
Malme-3M = test system: Malme-3M
SF-295 = test system: SF-295
COLO 205 = test system: COLO 205
HCT-15 = test system: HCT-15
U-251 = test system: U-251
HOP-62 = test system: HOP-62
OVCAR-8 = test system: OVCAR-8
A549 = test system: A549
UACC-257 = test system: UACC-257
SK-MEL-28 = test system: SK-MEL-28
SR = test system: SR
HL-60 = test system: HL-60
TK-10 = test system: TK-10
A498 = test system: A498
XF498 = test system: XF498
M19-MEL = test system: M19-MEL
NCI-H522 = test system: NCI-H522
UO-31 = test system: UO-31
UACC-62 = test system: UACC-62
DMS-273 = test system: DMS-273
SK-OV-3 = test system: SK-OV-3
CAKI-1 = test system: CAKI-1
786-0 = test system: 786-0
SN12C = test system: SN12C
HCT-116 = test system: HCT-116
DMS-114 = test system: DMS-114
SF-268 = test system: SF-268
SF-539 = test system: SF-539
HT-29 = test system: HT-29
LXFL 529 = test system: LXFL 529
SK-MEL-5 = test system: SK-MEL-5
RPMI-8226 = test system: RPMI-8226
HCC 2998 = test system: HCC 2998
NCI-H226 = test system: NCI-H226
ACHN = test system: ACHN
SNB-75 = test system: SNB-75
HOP-18 = test system: HOP-18
MOLT-4 = test system: MOLT-4
OVCAR-3 = test system: OVCAR-3
SNB-19 = test system: SNB-19
OVCAR-5 = test system: OVCAR-5
EKVX = test system: EKVX
DLD-1 = test system: DLD-1
CCRF-CEM = test system: CCRF-CEM
NCI-H460 = test system: NCI-H460
KM12 = test system: KM12
SNB-78 = test system: SNB-78
IGROV-1 = test system: IGROV-1
K562 = test system: K562
M14 = test system: M14
HOP-92 = test system: HOP-92
SK-MEL-2 = test system: SK-MEL-2
OVCAR-4 = test system: OVCAR-4
LOX IMVI = test system: LOX IMVI
NCI-H23 = test system: NCI-H23
RXF 393 = test system: RXF 393

N#COc1ccc(Oc2ccccc2)cc1
GI50 (KM-20L2): > 100 µM (inactive)
GI50 (Malme-3M): > 100 µM (inactive)
GI50 (SF-295): 59.8 µM (inactive)
GI50 (COLO 205): 64 µM (inactive)
GI50 (HCT-15): 57.7 µM
GI50 (U-251): 42.7 µM (inactive)
GI50 (HOP-62): 55.7 µM (inactive)
GI50 (OVCAR-8): 49.5 µM (inactive)
GI50 (A549): 73.3 µM (inactive)
GI50 (UACC-257): > 100 µM (inactive)
GI50 (SK-MEL-28): > 100 µM (inactive)
GI50 (SR): 24.3 µM (inactive)
GI50 (HL-60): 26.3 µM (inactive)
GI50 (TK-10): > 100 µM (inactive)
GI50 (A498): > 100 µM (inactive)
GI50 (XF498): 97.3 µM (inactive)
GI50 (M19-MEL): > 100 µM (inactive)
GI50 (NCI-H522): 34.7 µM (inactive)
GI50 (UO-31): 50.9 µM (inactive)
GI50 (UACC-62): 31.5 µM (inactive)
GI50 (DMS-273): 22.5 µM (inactive)
GI50 (SK-OV-3): > 100 µM (inactive)
GI50 (CAKI-1): 77.6 µM (inactive)
GI50 (786-0): 34.6 µM (inactive)
GI50 (SN12C): 62.4 µM (inactive)
GI50 (HCT-116): 61.7 µM (inactive)
GI50 (DMS-114): 31.1 µM (inactive)
GI50 (SF-268): 75.2 µM (inactive)
GI50 (SF-539): 26.8 µM (inactive)
GI50 (HT-29): 72.4 µM (inactive)
GI50 (LXFL 529): > 100 µM (inactive)
GI50 (SK-MEL-5): 46.6 µM (inactive)
GI50 (RPMI-8226): 30.4 µM (inactive)
GI50 (HCC 2998): 55.5 µM (inactive)
GI50 (NCI-H226): > 100 µM (inactive)
GI50 (ACHN): 29.2 µM (inactive)
GI50 (SNB-75): 39.8 µM (inactive)
GI50 (HOP-18): > 100 µM (inactive)
GI50 (MOLT-4): 42.9 µM (inactive)
GI50 (OVCAR-3): > 100 µM (inactive)
GI50 (SNB-19): > 100 µM (inactive)
GI50 (OVCAR-5): > 100 µM (inactive)
GI50 (EKVX): > 100 µM (inactive)
GI50 (DLD-1): > 100 µM (inactive)
GI50 (CCRF-CEM): 24.5 µM (inactive)
GI50 (NCI-H460): 43.2 µM (inactive)
GI50 (KM12): > 100 µM (inactive)
GI50 (SNB-78): 36.8 µM (inactive)
GI50 (IGROV-1): 68.4 µM (inactive)
GI50 (K562): 48.4 µM (inactive)
GI50 (M14): 58.7 µM (inactive)
GI50 (HOP-92): 43.8 µM (inactive)
GI50 (SK-MEL-2): 74.3 µM (inactive)
GI50 (OVCAR-4): > 100 µM (inactive)
GI50 (LOX IMVI): 23.1 µM (inactive)
GI50 (NCI-H23): 39.4 µM (inactive)
GI50 (RXF 393): > 100 µM (inactive)
